Where a name gives a salt, the structure may show the parent alone. Read-outs that look alike come from different tables or passages of the source.
How the values were obtained:
[1] = biological target: recombinant human KIT tyrosine kinase protein (Homo sapiens (Human), UniProt P10721); experiment: KIT tyrosine kinase assay (ADP-Glo); format: biochemical
Description: An in vitro assay utilizing the recombinant human KIT tyrosine kinase protein was developed to measure compound inhibition of KIT. KIT tyrosine kinase activity was measured by the ADP-Glo Kinase Assay system with poly […]) peptide substrate. Kinase Assay was performed in white 384-well plates and the luminescence was measured by Victor X5 Multilabel Counter (Perkin Elmer). Recombinant intracellular domain of human KIT protein was purchased from Carna Biosciences (Kobe, Japan). Poly […]) peptide was purchased from Sigma-Aldrich (St. Louis, Missouri, USA). ADP-Glo Kinase Assay reagent was purchased from Promega (Madison, Wisconsin, USA). Each test compound was dissolved in 100% DMSO to prepare 10 mM stock solutions. […] After the preincubation, 3 μL of substrate/ATP mixture was added and incubated for 1 hour at room temperature. The tyrosine phosphorylation by KIT kinase was quantified by ADP-Glo kinase assay kit following the manufacturer's protocol. Briefly, the phosphorylation reaction was terminated by adding 10 μL ADP-Glo reagent and incubated for 60 minutes at room temperature. 20 μL of Kinase Detection Reagent was added to each well and luminescence was measured by plate reader. […] Half maximal inhibitory concentration (IC50) was calculated by a Four […] Logistic Regression model using GraphPad Prism (GraphPad Software). The value without recombinant KIT protein and without test compound was used as a negative control (assay background).

M-07e cells = experiment: SCF-dependent M-07e cell proliferation assay; format: cell-based, human; settings: read-out: M-07e IC50
Description: SCF-dependent cell proliferation assay was developed to measure the inhibitory potency of the compounds in M-07e cells, which express wild-type human KIT protein. The assay was performed in 96-well plates and the IC50 of each KIT inhibitor was determined by CellTiter Glo Assay reagent and Victor X5 Multilabel Counter (Perkin Elmer).
M-07e cells were purchased from AcceGen Biotechnology. Cells were maintained with M-07e Growth medium: RPMI-1640 containing 20% FBS, 100 U/mL penicillin and 100 microgram/mL streptomycin, 10 ng/mL rhGM-CSF, 10 ng/mL rhSCF. M-07e cells were seeded at a density of 5000 cells/90 μL/well in 96-well plates. Test compounds were dissolved in 100% DMSO to make 20 mM stock solution and serially diluted 1:3 with 100% DMSO to make an 11-point dilution series with concen-trations from […] to 0.024 μM. The serially diluted compounds were then each diluted 1:50 with culture medium to obtain assay compound solutions containing 2% DMSO. Ten μL of assay compound solutions were added to the 90 μL of culture cell suspension in the 96-well plate, with a final DMSO concentration of 0.2%. The plates were then incubated in a 5% CO2 incubator at 37° C. for 3 days. To obtain Day Zero Controls for background calculation, cells were seeded at 5000 cells/100 μL in a new 96-well plate and processed on the same day. Both Day Zero controls and 3 day culture plates were then treated as follows. 100 μL of CellTiter Glo Assay reagent was added to each well and the plate was incubated at room temperature for 15 min on a shaker at 200-300 RPM. Then 100 μL of cell lysate samples were transferred to white wall 96-well plates and luminescence was measured by a plate reader. The luminescence of Day Zero Control was subtracted from the luminescence intensity of 3 day culture readings. The assay control for this experiment was cells treated with 0.2% DMSO in culture medium and wells with 100 μL of culture medium (0.2% DMSO without cells) were used as the blank for data analysis.
The IC50 value of each compound was determined by using % inhibition by nor-malizing inhibition in DMSO treated control wells to 0% using the following formula method: […]
Plot percent inhibition in proliferation of triplicates against the respective concen-trations of compound and fit the dose response curve using the sigmoidal dose response equation to generate the IC50 in GraphPad Prism 8 software.

[2] = SCF-dependent M-07e cell proliferation, 3 days, CellTiter Glo
[3] = Homo sapiens, M-07e, 72 h, SCF-dependent M-07e cell proliferation, 3 days, CellTiter Glo

Chain of recombinant human KIT tyrosine kinase protein (P10721 546-976): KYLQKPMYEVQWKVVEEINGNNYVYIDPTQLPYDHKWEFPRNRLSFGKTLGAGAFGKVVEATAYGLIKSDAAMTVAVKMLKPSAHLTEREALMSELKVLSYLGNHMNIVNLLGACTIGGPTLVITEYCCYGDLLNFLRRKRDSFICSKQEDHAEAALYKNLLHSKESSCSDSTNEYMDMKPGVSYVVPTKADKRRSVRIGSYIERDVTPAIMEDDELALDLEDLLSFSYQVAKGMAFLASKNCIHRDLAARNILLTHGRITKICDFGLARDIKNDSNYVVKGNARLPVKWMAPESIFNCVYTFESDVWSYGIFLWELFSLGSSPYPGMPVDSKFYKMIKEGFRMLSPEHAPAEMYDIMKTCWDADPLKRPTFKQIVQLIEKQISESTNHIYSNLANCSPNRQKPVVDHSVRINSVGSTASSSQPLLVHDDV

IC50 ([1]; Table 99) [nM] | SMILES | IC50 (M-07e cells; [2]) [nM] | IC50 (M-07e cells; [3]) [nM] | IC50 ([1]; Table 98) [nM] | IC50 (M-07e cells; Homo sapiens, M-07e, 72 h) [nM]
22 | CN(c1ccc(CNC(=O)c2ccc3c(c2)[nH]c(=O)n3C)cn1)C1CC(OC(F)F)C1 (single isomer, unassigned) [106 Isomer II, N-((6-((3-(Difluoromethoxy)cyclobutyl)(methyl)amino)pyridin-3-yl)methyl)-1-methyl-2-oxo-2,3-dihydro-1H-benzimidazole-5-carboxamide] | 89 | – | – | –
18 | CN(c1ccc(CNC(=O)c2ccc3c(c2)[nH]c(=O)n3C)cn1)C1CC(OC(F)(F)F)C1 (single isomer, unassigned) [107 Isomer I, 1-Methyl-N-((6-(methyl(3-(trifluoromethoxy)cyclobutyl)amino)pyridin-3-yl)methyl)-2-oxo-2,3-dihydro-1H-benzimidazole-5-carboxamide] | 47 | – | – | –
28 | CN(c1ccc(CNC(=O)c2ccc3c(c2)[nH]c(=O)n3C)cn1)C1CC(OC(F)(F)F)C1 (single isomer, unassigned) [107 Isomer II, 1-Methyl-N-((6-(methyl(3-(trifluoromethoxy)cyclobutyl)amino)pyridin-3-yl)methyl)-2-oxo-2,3-dihydro-1H-benzimidazole-5-carboxamide] | 286 | – | – | –
79 | CC(NC(=O)c1ccc2c(c1)[nH]c(=O)n2C)c1ccc(N(C)C(C)C)nc1 (single isomer, unassigned) [130 Peak 1] | – | 621 | – | –
– | Cn1c(=O)[nH]c2cc(C(=O)NCc3ccc(Oc4ccccc4F)nc3)c(F)cc21 [Compound 3, 6-Fluoro-N-((6-(2-fluorophenoxy)pyridin-3-yl)methyl)-1-methyl-2-oxo-2,3-dihydro-1H-benzimidazole-5-carboxamide trifluoroacetate] | – | 180 | 26 | –
– | Cn1c(=O)[nH]c2cc(C(=O)NCc3ccc(Oc4ccc(F)cc4F)nc3)ccc21 [Compound 4, N-((6-(2,4-Difluorophenoxy)pyridin-3-yl)methyl)-1-methyl-2-oxo-2,3-dihydro-1H-benzi midazole-5-carboxamide] | – | 380 | 21 | –
– | CN(c1ccc(F)cc1)c1ccc(CNC(=O)c2ccc3c(c2)[nH]c(=O)n3C)cn1 [Compound 9, N-((6-((4-Fluorophenyl)(methyl)amino)pyridin-3-yl)methyl)-1-methyl-2-oxo-2,3-dihydro-1H-benzimidazole-5-carboxamide trifluoroacetate] | – | 610 | 34 | –
– | CC(C)N(C)c1ccc(CNC(=O)c2ccc3c(c2)[nH]c(=O)n3C)cn1 [Compound 11b, N-((6-(Isopropyl(methyl)amino)pyridin-3-yl)methyl)-1-methyl-2-oxo-2,3-dihydro-1H-be nzimidazole-5-carboxamide hydrochloride] | – | 220 | 96 | –
– | Cn1c(=O)[nH]c2cc(C(=O)NCc3ccc(N(C)[C@H]4C[C@@H](C(F)(F)F)C4)nc3)ccc21 [Compound 12, 1-Methyl-N-((6-(methyl(cis-3-(trifluoromethyl)cyclobutyl)amino)pyridin-3-yl)methyl)-2-oxo-2,3-dihydro-1H-benzimidazole-5-carboxamide] | – | 38 | 36 | –
– | C[C@H]1CCCN1c1ccc(CNC(=O)c2ccc3c(c2)[nH]c(=O)n3C)cn1 [Compound 14, (S)-1-Methyl-N-((6-(2-methylpyrrolidin-1-yl)pyridin-3-yl)methyl)-2-oxo-2,3-dihydro-1H-benzimidazole-5-carboxamide] | – | 560 | 63 | –
– | CC(c1ccc(F)cc1)c1ccc(CNC(=O)c2ccc3c(c2)[nH]c(=O)n3C)cn1 (stereo not shown) [Compound 15, N-((6-(1-(4-Fluorophenyl)ethyl)pyridin-3-yl)methyl)-1-methyl-2-oxo-2,3-dihydro-1H-be nzimidazole-5-carboxamide] | – | 2200 | 67 | –
– | CC(C)N1CCc2cc(CNC(=O)c3ccc4c(c3)[nH]c(=O)n4C)cnc21 [Compound 17, N-((1-Isopropyl-2,3-dihydro-1H-pyrrolo[2,3-b]pyridin-5-yl)methyl)-1-methyl-2-oxo-2,3-dihydro-1H-benzimidazole-5-carboxamide] | – | 390 | 22 | –
– | Cn1c(=O)[nH]c2cc(C(=O)NCc3cnc4c(c3)CCN4C3CCC(F)(F)CC3)ccc21 [Compound 18, N-((1-(4,4-difluorocyclohexyl)-2,3-dihydro-1H-pyrrolo[2,3-b]pyridin-5-yl)methyl)-1-met hyl-2-oxo-2,3-dihydro-1H-benzimidazole-5-carboxamide] | – | 210 | 57 | –
– | Cn1c(=O)[nH]c2cc(C(=O)NCc3cnc4c(c3)CCN4c3ccccc3F)ccc21 [Compound 19, N-((1-(2-Fluorophenyl)-2,3-dihydro-1H-pyrrolo[2,3-b]pyridin-5-yl)methyl)-1-methyl-2-o xo-2,3-dihydro-1H-benzimidazole-5-carboxamide] | – | 160 | 60 | –
– | Cn1c(=O)[nH]c2cc(C(=O)NCc3cnc4c(ccn4-c4ccccc4)c3)ccc21 [Compound 20, 1-Methyl-2-oxo-N-((1-phenyl-1H-pyrrolo[2,3-b]pyridin-5-yl)methyl)-2,3-dihydro-1H-benzimidazole-5-carboxamide] | – | 400 | 38 | –
– | Cn1c(=O)[nH]c2cc(C(=O)NCc3ccc(Oc4cccc(F)c4F)nc3)ccc21 [Example 36] | – | – | 50 | 870
– | Cn1c(=O)[nH]c2cc(C(=O)NCc3ccc(Oc4ccc(Cl)cc4F)nc3)ccc21 [Example 39] | – | – | 35 | 140
– | Cn1c(=O)[nH]c2cc(C(=O)NCc3ccc(OC4CCOC(C)(C)C4)nc3)ccc21 (stereo not shown) [Example 48] | – | – | 550 | 8900
– | Cn1c(=O)[nH]c2cc(C(=O)NCc3ccc(Nc4ccc(F)cc4)nc3)ccc21 [Example 57] | – | 7300 | 227 | –
– | CCN(c1ccc(F)cc1)c1ccc(CNC(=O)c2ccc3c(c2)[nH]c(=O)n3C)cn1 [Example 58] | – | – | 21 | 2400
– | CN(c1ccc(CNC(=O)c2ccc3c(c2)[nH]c(=O)n3C)cn1)c1ccccc1F [Example 59] | – | – | 14 | 190
– | CN(c1ccc(CNC(=O)c2ccc3c(c2)[nH]c(=O)n3C)cn1)c1cccc(F)c1F [Example 61] | – | – | 56 | 760
– | CN(c1ccc(CNC(=O)c2ccc3c(c2)[nH]c(=O)n3C)cn1)c1ccc(F)cc1F [Example 62] | – | – | 170 | 290
– | CN(c1ccc(CNC(=O)c2ccc3c(c2)[nH]c(=O)n3C)cn1)C1CC(F)(F)C1 [Example 65] | – | – | 35 | 270
– | CN(Cc1ccccc1)c1ccc(CNC(=O)c2ccc3c(c2)[nH]c(=O)n3C)cn1 [Example 66] | – | – | 33 | 79
– | CN(CCC(F)(F)F)c1ccc(CNC(=O)c2ccc3c(c2)[nH]c(=O)n3C)cn1 [Example 67] | – | – | 25 | 220
– | CN(CC1CC(F)(F)C1)c1ccc(CNC(=O)c2ccc3c(c2)[nH]c(=O)n3C)cn1 [Example 68] | – | – | 42 | 130
– | CN(CC1CCCOC1)c1ccc(CNC(=O)c2ccc3c(c2)[nH]c(=O)n3C)cn1 (stereo not shown) [Example 69] | – | – | 96 | 520

SMILES | IC50 ([1]; Table 99) [nM] | IC50 (M-07e cells; [2]) [nM] | IC50 (M-07e cells; [3]) [nM] | IC50 ([1]; Table 98) [nM] | IC50 (M-07e cells; Homo sapiens, M-07e, 72 h) [nM]
Cn1c(=O)[nH]c2cc(C(=O)NCc3ccc(OC4CC(C(F)(F)F)C4)nc3)ccc21 (stereo not shown) [Compound 103, 1-Methyl-2-oxo-N-((6-(3-(trifluoromethyl)cyclobutoxy)pyridin-3-yl)methyl)-2,3-dihyd ro-1H-benzimidazole-5-carboxamide] | 42 | – | 819 | – | –
